Measurements from patent publication US6897049B1, “Proteins producing an altered immunogenic response and methods of making and using the same” (Genencor International, Inc., priority 1998, dated 2005).

Legend:
naïve human CD4+ T-cells = experiment: T-cell proliferation assay with differentiated dendritic cells and naïve human CD4+ T-cells (tritium incorporation); type: cell-based; settings: for T-cell epitope discovered: naïve donors, positive if response at least 3 times baseline
Experimental: Fresh human peripheral blood cells were collected from “naïve” humans, i.e., persons not known to be exposed to or sensitized to Bacillus lentus protease, for determination of antigenic epitopes in protease from Bacillus lentus and human subtilisin. Naïve humans is intended to mean that the individual is not known to have been exposed to or developed a reaction to protease in the past. Peripheral mononuclear blood cells (stored at room temperature, no older than 24 hours) were prepared for use as follows: Approximately 30 mls of a solution of buffy coat preparation from one unit of whole blood was brought to 50 ml with Dulbecco's phosphate buffered solution (DPBS) and split into two tubes. The samples were underlaid with 12.5 ml of room temperature lymphoprep density separation media (Nycomed density 1.077 g/ml). The tubes were centrifuged for thirty minutes at 600 G. The interface of the two phases was collected, pooled and washed in DPBS. The cell density of the resultant solution was measured by hemocytometer. Viability was measured by trypan blue exclusion.
From the resulting solution, a differentiated dendritic cell culture was prepared from the peripheral blood mononuclear cell sample having a density of 10^8 cells per 75 ml culture flask in a solution as follows: • (1) 50 ml of serum free AIM V media (Gibco) was supplemented with a 1:100 dilution beta-mercaptoethanol (Gibco). The flasks were laid flat for two hours at 37° C. in 5% CO2 to allow adherence of monocytes to the flask wall. • (2) Differentiation of the monocyte cells to dendritic cells was as follows: nonadherent cells were removed and the resultant adherent cells (monocytes) combined with 30 ml of AIM V, 800 units/ml of GM-CSF (Endogen) and 500 units/ml of IL-4 (Endogen); the resulting mixture was cultured for 5 days under conditions at 37° C. in 5% CO2. […] Adherent and non-adherent cells were then centrifuged at 600 G for 5 minutes, washed in DPBS and counted. • (4) The prepared dendritic cells were placed into a 96 well round bottom array at 2×10^4/well in 100 microliter total volume of AIM V media.
CD4+ T cells were prepared from frozen aliquots of the peripheral blood cell samples used to prepare the dendritic cells using the human CD4+ Cellect Kit (Biotex) as per the manufacturers instructions with the following modifications: the aliquots were thawed and washed such that approximately […] will be applied per Cellect column; the cells were resuspended in 4 ml DPBS and 1 ml of the Cell reagent from the Cellect Kit, the solution maintained at room temperature for 20 minutes. […] The resultant CD4+ cell solution was centrifuged, resuspended in AIMV media and the density counted. […]

HLA DQ2 molecules = experiment: In vitro binding assays using EBV-transformed B cell lines; design: species or system human
[1] = system: T-cells of an individual known to be hypersensitive to Bacillus lentus protease; experiment: T-cell response to peptides in a sample from an individual hypersensitive to Bacillus lentus protease; type: cell-based, human
Source text: Peptide E05 represents the region corresponding to 170-173 in protease from Bacillus amyloliquefaciens.
Alanine substitutions were used as substitutions for the purpose of determining the role of any specific residue within the epitope. The legend of FIG. 10 refers to the position of the peptide in which an alanine was substituted, i.e., in peptide E06 (sequence GSISYPARYANAMAV (SEQ ID NO: 210)), G to A=2, S to A=3, I to A=4, S to A=5, Y to A=6, P to A=7, R to A=8, Y to A=9, N to A=10, M to A=11 and V to A=12.

| Substance | T-cell epitope discovered (naïve human CD4+ T-cells) | binding to HLA DQ2 molecules (HLA DQ2 molecules) | further results |
| --- | --- | --- | --- |
| A01: peptide derived from Humicola insolens cellulase (Carezyme); legend: A02, residues 70-84 (PGGVAYSCADQTPWA) [Peptide A01] | T-cell epitopes were discovered | – | – |
| 109-123: BPN′ peptide of region 109-123, human T cell epitope (NGIEWAIANNMDVIN; UniProt P00782 216-230, looked up, fragment) [Peptide 109-123] | – | bound | – |
| A12: peptide derived from Thermomyces lanuginosa lipase (Lipolase); legend: B02, residues 83-100 (GDVTGFLALDNTNKLIVL) [Peptide A12] | T-cell epitopes were discovered | – | – |
| GSISYPARYANAMAV [Peptide E05, Bacillus lentus protease peptide with region corresponding to 170-173 of B. amyloliquefaciens protease] | – | – | immunogenic response (T-cell proliferation) to peptide (naïve human CD4+ T-cells; naïve blood samples from unsensitized individuals, response relative to baseline): marked allergenic response; T-cell response to peptide [1]: highly responsive |
| 70-84: BPN′ peptide of region 70-84, human T cell epitope (GTVAALNNSIGVLGV; UniProt P00782 177-191, looked up, fragment) [Peptide 70-84] | – | bound | – |
| F06: peptide of Humicola insolens endogluconase, residues 37-51 (SEQ ID NO: 223) (CGWAKKAPVNQPVFS) [Peptide F06] | T-cell epitopes were discovered | – | – |
